Patent publication US20260345717A1, “COMPOSITION FOR PREVENTING, AMELIORATING, OR TREATING ALZHEIMER'S DISEASE COMPRISING GRAPEVINE STEM EXTRACT OR COMPOUND ISOLATED THEREFROM AS EFFECTIVE COMPONENT” (KOREA INSTITUTE OF ORIENTAL MEDICINE, priority 2022, published 2026)

Key:
[1] = system: herpes simplex virus (HSV-1) in Vero cells; test: Antiviral effect: HSV-1 (GFP) infection of Vero cells, flow cytometry; format: cell-based; conditions: for inhibition at 10 µM / inhibition at 5 µM: Human alphaherpesvirus 1, Vero, 18 h, read-out: inhibition rate of virus replication; for antiviral effect compared with other components of the extract: FIG. 2
Protocol: Vero cells were cultured in DMEM medium supplemented with 10% fetal bovine serum (FBS) and 1% penicillin/streptomycin. After culturing, the cells were infected with herpes simplex virus (HSV-1, 0.1 MOI) for 2 hours in DMEM medium supplemented with 1% penicillin/streptomycin. The infection solution was removed, the cells were washed with PBS and then treated with the samples from Preparation example 1 at different concentrations in DMEM supplemented with 10% FBS and 1% penicillin/streptomycin. The cells were subsequently cultured for 18 hours. Afterwards, the cells were recovered, fixed with 4% paraformaldehyde, washed with PBS, and GFP of the virus was quantified using flow cytometry. The cell infection rate was expressed as the infection rate compared to the group (Virus) that had not been treated with any sample.
In addition, the antiviral effect of the components contained in the grapevine stem extract obtained in Preparation example 2, i.e., vitisin A, &-viniferin, caraphenol A, betuin, cis-vitisin A, ampelopsin A, lupeol, vitisin B, malibatol A, viniferether B, lupenone, and resveratrol, was also determined by conducting experiments in the same manner as above.

[2] = system: U373-MG cells infected with herpes simplex virus (HSV-1); test: Cell survival of HSV-1 infected U373-MG cells, MTT assay; format: cell-based, human; conditions: compared to untreated group (control), FIG. 5A; for viability at 10 µM: Homo sapiens, 18 h, read-out: cell survival rate
Protocol: (§1) U373-MG cells, a human-derived glioblastoma, were cultured in RPMI1640 medium supplemented with 10% FBS (Fetal bovine serum) and 1% penicillin/streptomycin. After culturing, the cells were infected with herpes simplex virus (HSV-1, 0.1 MOI) in RPMI1640 medium supplemented with 1% penicillin/streptomycin. After 2 hours, the infection solution was removed. After washing with PBS, the cells were treated for 18 hours with a sample in RPMI1640 supplemented with 10% FBS and 1% penicillin/streptomycin. […] Cell survival rate was expressed as cell survival rate compared to the untreated group (control).

[3] = system: herpes simplex virus protein ICP27; test: ICP27 viral protein expression in HSV-1 infected U373-MG cells; format: cell-based, herpes simplex virus (HSV-1); conditions: concentration not restated
amyloid beta (Aβ1-42) = test: Amyloid beta (Aβ1-42) expression in HSV-1 infected U373-MG cells, Western blot; format: cell-based, human; conditions: 10 μM, FIGS. 10A and 10B
Protocol: as §1
(§2) The experiment was conducted in the same manner as the cell experiment in Example 3, but vitisin A, cis-vitisin A, and vitisin B isolated from grapevine stem extract were treated as test samples, and cell proteins were isolated to determine the expression of proteins that are related to dementia.

[4] = system: herpes simplex virus protein VP16; test: VP16 viral protein expression in HSV-1 infected U373-MG cells; format: cell-based, herpes simplex virus (HSV-1); conditions: concentration not restated
tau protein (p-tau) = test: Phosphorylation of tau protein (p-tau) in HSV-1 infected U373-MG cells, Western blot; format: cell-based, human; conditions: 10 μM, FIGS. 10A and 10B
Protocol: as §1, §2

[5] = system: gB protein of the herpes simplex virus; test: gB viral protein expression in HSV-1 infected U373-MG cells, Western blot; format: cell-based, herpes simplex virus (HSV-1); conditions: 10 μM, FIG. 5B, 1080 min

Molecule: Oc1ccc(C=Cc2cc(O)cc(O)c2)cc1 (single isomer, unassigned) [Resveratrol, resveratrol]
- inhibition of viral infection ([1]; Vero cells, HSV-1 0.1 MOI, 18 hours, concentration not restated in this sentence): 67%

Molecule: C=C(C)[C@@H]1CC[C@]2(C)CC[C@]3(C)[C@H](CC[C@@H]4[C@@]5(C)CC[C@H](O)C(C)(C)[C@@H]5CC[C@]43C)[C@@H]12 (single isomer, unassigned) [lupeol]
- inhibition at 10 µM [1]: 59%

Molecule: Oc1ccc([C@H]2c3c(O)cc(O)cc3[C@H]3c4c(cc(O)cc4[C@@H]2O)O[C@@H]3c2ccc(O)cc2)cc1 [amphelopsin A, ampelopsin A]
- inhibition at 10 µM [1]: 54%

Molecule: Oc1ccc(-c2oc3cc(O)cc4c3c2-c2cc(O)cc3c2[C@H](c2cc(O)cc5c2[C@@H]4[C@H](c2ccc(O)cc2)O5)[C@@H](c2ccc(O)cc2)O3)cc1 [caraphenol A]
- inhibition at 10 µM [1]: 41%

Molecule: Oc1ccc([C@H]2c3c(O)cc(O)cc3[C@H]3c4c(cc(O)cc4[C@@H]2c2cc(/C=C/c4cc(O)cc5c4[C@H](c4cc(O)cc(O)c4)[C@@H](c4ccc(O)cc4)O5)ccc2O)O[C@@H]3c2ccc(O)cc2)cc1 [vitisin A]
- viability at 10 µM [2]: 87%
- inhibition rate against ICP27 compared to the virus-infected group [3]: 93%
- inhibition at 5 µM [1]: 80%
- inhibition at 10 µM [1]: 96%
- antiviral effect compared with other components of the extract ([1]; Vero cells): best antiviral effect
- expression of amyloid beta (Aβ1-42) compared to the virus-infected group (amyloid beta (Aβ1-42)): significantly reduced
- inhibition rate against VP16 compared to the virus-infected group [4]: 100%
- phosphorylation of tau protein (p-tau) compared to the virus-infected group (tau protein (p-tau)): significantly reduced
- reduction of gB protein compared to the virus-infected group [5]: 99%

Molecule: Oc1ccc([C@H]2Oc3cc(O)cc(/C=C/c4ccc5c(c4)[C@@H](c4cc(O)cc6c4[C@H](c4cc(O)cc(O)c4)[C@@H](c4ccc(O)cc4)O6)[C@H](c4ccc(O)cc4)O5)c3[C@@H]2c2cc(O)cc(O)c2)cc1 [vitisin B]
- viability at 10 µM [2]: 76%
- inhibition at 5 µM [1]: 80%
- inhibition at 10 µM [1]: 76%
- antiviral effect compared with other components of the extract ([1]; Vero cells): best antiviral effect
- reduction of gB protein compared to the virus-infected group [5]: 66%

Molecule: Oc1ccc(/C=C/c2cc(O)cc3c2C(c2cc(O)cc(O)c2)C(c2ccc(O)cc2)O3)cc1 (stereo not drawn) [ε-viniferin]
- inhibition at 10 µM [1]: 42%

Molecule: cis-vitisin A
- cell survival rate ([2]; 10 μM, 1080 min): 84%
- reduction of gB protein compared to the virus-infected group [5]: 27%
